Source: patent US20060035862A1, “Tolerance of 4-(4-(2-pyrrolycarbonyl)-1-piperazinyl)-3-trifluoromethyl-benzoylguanidine in intravenous administration” (Boehringer Ingelheim Pharma KG, priority 2001, published 2006)
Counter-ions that a name gives are not always drawn.

Key:
citrated human blood = assay: in vitro haemolysis test (solution mixed 1:1 with citrated human blood, 37° C.); assay type: cell-based
Source text: In the following description the term “active substance”, on its own or in combination, always denotes 4-(4-(2-pyrrolylcarbonyl)-1-piperazinyl)-3-trifluoromethyl-benzoylguanidine hydrochloride, unless otherwise stated. Both a monohydrate and a hemihydrate of 4-(4-(2-pyrrolylcarbonyl)-1-piperazinyl)-3-trifluoromethyl-benzoylguanidine hydrochloride may be obtained. For all the experiments the hemihydrate was used. The quantitative data used hereinafter always relate to the free base; i.e. the quantities specified correspond to the theoretical amount of free base, whereas in reality a correspondingly larger amount of hemihydrate was added. In each case glucose was used to render the solution isotonic. The isotonic nature of the solutions was checked in each case by lowering the freezing point. In in-vitro haemolysis tests in each case the solution to be tested was mixed with citrated human blood in the ratio 1:1 and kept at 37° C. during the incubation period. […]

[1] = local tolerance trial on rats (30 minutes' infusion into the caudal vein); assay type: in vivo
[2] = local tolerance study on rabbits (bolus and 8 minutes infusion); assay type: in vivo
[3] = local tolerance in dogs (bolus and infusion); assay type: in vivo
Protocol: In the second step the appropriate ratio of HPβCD to active substance was determined from the local tolerance in dogs.

[4] = local tolerance after intravenous administration; assay type: in vivo
Protocol: When they are administered parenterally some local intolerances occasionally arise.

[5] = stability of the active substance (hydrolysis); assay type: physicochemical; settings: only anhydrous formulations are stable
Source text: Therefore, lyophilisates have been developed, which have to be reconstituted before use.

With `N=C(N)NC(=O)c1ccc(N2CCN(C(=O)c3ccc[nH]3)CC2)c(C(F)(F)F)c1` [active substance, 4-(4-(2-pyrrolylcarbonyl)-1-piperazinyl)-3-trifluoromethyl-benzoylguanidine hydrochloride] the degree of haemolysis (citrated human blood; 10 mg/ml active substance, 100 mg/ml PVP 17 PF, aqueous isotonic solution, incubation 45 minutes) was 17%, the haemolysis observed (citrated human blood; 1% aqueous isotonic active substance solution containing 10% HPβCD, incubation 45 minutes) was “no haemolysis” and the “degree of haemolysis (%)” value (citrated human blood; active substance 0.5 mg/ml, aqueous isotonic solution, no tolerance measures, incubation two hours) was 0%. For the same compound, the “degree of haemolysis (%)” value (citrated human blood; active substance 1.0 mg/ml, aqueous isotonic solution, no tolerance measures, incubation two hours) was 1%, the “degree of haemolysis (%)” value (citrated human blood; active substance 1.5 mg/ml, aqueous isotonic solution, no tolerance measures, incubation two hours) was 4% and the “degree of haemolysis (%)” value (citrated human blood; active substance 1.5 mg/ml, no tolerance measures, incubation 45 minutes) was 0%. The “degree of haemolysis (%)” value (citrated human blood; active substance 10 mg/ml, HPβCD 0 mg/ml, incubation 45 minutes) was 100%, the “degree of haemolysis (%)” value (citrated human blood; active substance 10 mg/ml, HPβCD 100 mg/ml, incubation 45 minutes) was 0% and the “degree of haemolysis (%)” value (citrated human blood; active substance 10 mg/ml, Poloxamer 188 0 mg/ml, incubation 45 minutes) was 99%. For the same compound, the “degree of haemolysis (%)” value (citrated human blood; active substance 10 mg/ml, Poloxamer 188 100 mg/ml, incubation 45 minutes) was 4%, the “degree of haemolysis (%)” value (citrated human blood; active substance 10 mg/ml, Poloxamer 188 200 mg/ml, incubation 45 minutes) was 0% and the “degree of haemolysis (%)” value (citrated human blood; active substance 10.0 mg/ml, no tolerance measures, incubation 45 minutes) was 100%. The “degree of haemolysis (%)” value (citrated human blood; active substance 10 mg/ml, phospholipid 60 mg/ml, sodium glycocholate 32 mg/ml) was 2%, the “degree of haemolysis (%)” value (citrated human blood; active substance 10 mg/ml, phospholipid 60 mg/ml, sodium glycocholate 36 mg/ml) was 7% and the “degree of haemolysis (%)” value (citrated human blood; active substance 10 mg/ml, phospholipid 75 mg/ml, sodium cholate 50 mg/ml, incubation 45 minutes) was 7%. The “degree of haemolysis (%)” value (citrated human blood; active substance 10 mg/ml, phospholipid 150 mg/ml, sodium cholate 100 mg/ml, incubation 45 minutes) was 0%, the haemolytic activity (citrated human blood; ratio of HPβCD to active substance 6.67:1, active substance concentration 9 mg/ml) was “not haemolytic” and the local tolerance ([1]; 0.75 mg/ml, no tolerance measures, 30 minutes' infusion into the caudal vein) was “poorly tolerated”. For the same compound, the local tolerance ([1]; 1.5 mg/ml with 100 mg/ml Poloxamer 188, 30 minutes infusion into the caudal vein, compared with 1.5 mg/ml without excipient) was “better tolerated”, the local tolerance ([2]; 1% active substance solutions containing 10% HPβCD) was “locally well-tolerated” and the local tolerance ([2]; 1% active substance solutions with phospholipid and sodium cholate (mixed micelles)) was “locally well-tolerated”. The local tolerance ([3]; weight ratio HPβCD to active substance 10:1, bolus, active substance concentration 10 mg/ml) was “suitable”, the local tolerance ([3]; weight ratio HPβCD to active substance 10:1, infusion, active substance concentration between 1.5 mg/ml and 3 mg/ml) was “suitable” and the local tolerance [4] was “locally poorly tolerated”. For the same compound, the stability [5] was “prone to hydrolysis”.
